The data set can be described thus: xn = mol fraction of the nth substance listed. As to conditions: 298.15 K, 101 kPa.

On to `CCOC(C)=O` + CCCC[n+]1ccn(C)c1.O=S(=O)([N-]S(=O)(=O)C(F)(F)F)C(F)(F)F, for which the viscosity (commonly the resistance of a fluid to flow) is, setting by setting: (x1 = 0.0522) 44.4 mPa·s; (x1 = 0.1818) 30.6 mPa·s; (x1 = 0.2982) 21.1 mPa·s; (x1 = 0.4204) 13.67 mPa·s; (x1 = 0.4752) 10.91 mPa·s; (x1 = 0.5937) 6.54 mPa·s. The viscosity is, setting by setting: (x1 = 0.6953) 3.93 mPa·s; (x1 = 0.7954) 2.21 mPa·s; (x1 = 0.8933) 1.105 mPa·s.

As for `CCCC[n+]1ccn(C)c1.O=S(=O)([N-]S(=O)(=O)C(F)(F)F)C(F)(F)F` + CCO, the viscosity is 42.6 mPa·s (x2 = 0.0793); 36.8 mPa·s (x2 = 0.1393); 31.4 mPa·s (x2 = 0.2058); 27.3 mPa·s (x2 = 0.2578); 21.6 mPa·s (x2 = 0.345); 19.4 mPa·s (x2 = 0.384). Further, the viscosity (x2 = 0.4122) stood at 17.91 mPa·s; the viscosity (x2 = 0.5622) was 11.15 mPa·s; the viscosity (x2 = 0.688) was 7.11 mPa·s; the viscosity (x2 = 0.7967) amounted to 4.36 mPa·s; the viscosity (x2 = 0.8984) came to 2.46 mPa·s.

Source of the values: a compilation of properties of binary mixtures (doi:10.1007/s10953-010-9507-z).
